From article PMC4890785, “Recombinant L-Asparaginase from Zymomonas mobilis: A Potential New Antileukemic Agent Produced in Escherichia coli” (PLoS ONE, 2016) come the findings set out here.

This test deals with T1, L-asparaginase from Z. mobilis (L-AspZ) (Zymomonas mobilis, UniProt Q5NLV3).
T1 construct: gene ZMO1683; first 29 residues (signal peptide) removed; codon-optimised gene in E. coli BL21(DE3): pET26b (pelB, extracellular) or pET28a (cytoplasmic); not purified
Briefly: ammonia release, salicylate-hypochlorite (indophenol) colorimetry. Type of test: biochemical. As to conditions: sonicated E. coli lysate or concentrated culture medium; 37 °C, pH 7.3, 20 mM sodium phosphate; asparagine stock 5 g/L mixed 1:1; uninduced control tested.

T1 sequence (Q5NLV3 entry or part of it): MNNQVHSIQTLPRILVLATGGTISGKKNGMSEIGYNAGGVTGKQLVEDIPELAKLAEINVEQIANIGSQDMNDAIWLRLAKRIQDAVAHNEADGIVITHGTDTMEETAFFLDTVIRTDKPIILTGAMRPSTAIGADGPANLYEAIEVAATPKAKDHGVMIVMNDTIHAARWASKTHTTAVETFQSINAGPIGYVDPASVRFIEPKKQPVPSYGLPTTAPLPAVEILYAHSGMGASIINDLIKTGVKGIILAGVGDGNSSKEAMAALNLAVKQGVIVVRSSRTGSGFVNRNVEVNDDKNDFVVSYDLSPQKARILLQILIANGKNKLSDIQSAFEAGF

Take `NC(=O)C[C@H](N)C(=O)O` [asparagine]: the “ammonia release, salicylate-hypochlorite (indophenol) colorimetry” value was “Enzyme activity was measured by hydrolyzing asparagine to aspartate and ammonia”.
